Results: patent publication US20110086759A1, “CHEMICAL COMPOUNDS” (SYNGENTA CROP PROTECTION, INC., priority 2007, published 2011)

Experiments:
Assay type in all cases: in vivo
Solanum nigrum (SOLNI) [1] = assay: Pre-emergence biological efficacy, glasshouse pot test; conditions: 312 h
Summary of the method: (§1)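 Compound was applied as a spray one day after sowing, at a final dose of 1000 or 250 g/ha. Plants grew under 14 h light, 24/16 °C and 65% humidity, and injury was assessed on day 13 on a 0–100 scale.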

[2] = tested on: Ipomea hederaceae (IPOHE); assay: as above; conditions: Ipomoea hederacea, 312 h
Summary of the method: as §1

[3] = tested on: Alopecurus myosuroides (ALOMY); assay: as above; conditions: 312 h
Summary of the method: as §1

[4] = tested on: Amaranthus retoflexus (AMARE); assay: as above; conditions: Amaranthus retroflexus, 312 h
Summary of the method: as §1

[5] = tested on: Echinochloa crus-galli (ECHCG); assay: as above; conditions: 312 h
Summary of the method: as §1

Setaria faberi (SETFA) [6] = assay: as above; conditions: 312 h
Summary of the method: as §1

Solanum nigrum (SOLNI) [7] = assay: Post-emergence biological efficacy, glasshouse pot test; conditions: 312 h
Summary of the method: (§2)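 Plants were sown in standard soil and grown 8 days in a glasshouse (24/16° C. day/night, 14 hours light, 65% humidity), then sprayed post-emergence at 1000 or 250 g/ha from acetone/water (50:50) with 0.5% Tween 20. Damage was scored visually after 13 days (0 = none, 100 = total).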

[8] = tested on: Ipomea hederaceae (IPOHE); assay: as above; conditions: Ipomoea hederacea, 312 h
Summary of the method: as §2

[9] = tested on: Alopecurus myosuroides (ALOMY); assay: as above; conditions: 312 h
Summary of the method: as §2

[10] = tested on: Amaranthus retoflexus (AMARE); assay: as above; conditions: Amaranthus retroflexus, 312 h
Summary of the method: as §2

[11] = tested on: Echinochloa crus-galli (ECHCG); assay: as above; conditions: 312 h
Summary of the method: as §2

Setaria faberi (SETFA) [12] = assay: as above; conditions: 312 h
Summary of the method: as §2

[13] = pre-emergence, 1,000 g/ha, evaluated after 13 days (100=total damage; 0=no damage), read-out: Percentage damage SOLNI
[14] = pre-emergence, 1,000 g/ha, evaluated after 13 days (100=total damage; 0=no damage), read-out: Percentage damage IPOHE
[15] = pre-emergence, 1,000 g/ha, evaluated after 13 days (100=total damage; 0=no damage), read-out: Percentage damage ALOMY
[16] = pre-emergence, 1,000 g/ha, evaluated after 13 days (100=total damage; 0=no damage), read-out: Percentage damage AMARE
[17] = pre-emergence, 1,000 g/ha, evaluated after 13 days (100=total damage; 0=no damage), read-out: Percentage damage ECHCG
[18] = pre-emergence, 1,000 g/ha, evaluated after 13 days (100=total damage; 0=no damage), read-out: Percentage damage SETFA
[19] = post-emergence, 1,000 g/ha, evaluated after 13 days (100=total damage; 0=no damage), read-out: Percentage damage caused to weed species, SOLNI
[20] = post-emergence, 1,000 g/ha, evaluated after 13 days (100=total damage; 0=no damage), read-out: Percentage damage caused to weed species, IPOHE
[21] = post-emergence, 1,000 g/ha, evaluated after 13 days (100=total damage; 0=no damage), read-out: Percentage damage caused to weed species, ALOMY
[22] = post-emergence, 1,000 g/ha, evaluated after 13 days (100=total damage; 0=no damage), read-out: Percentage damage caused to weed species, AMARE
[23] = post-emergence, 1,000 g/ha, evaluated after 13 days (100=total damage; 0=no damage), read-out: Percentage damage caused to weed species, ECHCG
[24] = post-emergence, 1,000 g/ha, evaluated after 13 days (100=total damage; 0=no damage), read-out: Percentage damage caused to weed species, SETFA
[25] = pre-emergence, rate 1,000 g/ha, evaluated after 13 days (100=total damage to plant; 0=no damage), read-out: Percentage damage caused to weed species, SOLNI
[26] = pre-emergence, rate 1,000 g/ha, evaluated after 13 days (100=total damage to plant; 0=no damage), read-out: Percentage damage caused to weed species, IPOHE
[27] = pre-emergence, rate 1,000 g/ha, evaluated after 13 days (100=total damage to plant; 0=no damage), read-out: Percentage damage caused to weed species, ALOMY
[28] = pre-emergence, rate 1,000 g/ha, evaluated after 13 days (100=total damage to plant; 0=no damage), read-out: Percentage damage caused to weed species, AMARE
[29] = pre-emergence, rate 1,000 g/ha, evaluated after 13 days (100=total damage to plant; 0=no damage), read-out: Percentage damage caused to weed species, ECHCG
[30] = pre-emergence, rate 1,000 g/ha, evaluated after 13 days (100=total damage to plant; 0=no damage), read-out: Percentage damage caused to weed species, SETFA
[31] = Rate 1,000 g/ha, post-emergence spray, evaluated after 13 days (100=total damage to plant; 0=no damage to plant), read-out: Percentage damage caused to weed species, post-emergence, SOLNI
[32] = Rate 1,000 g/ha, post-emergence spray, evaluated after 13 days (100=total damage to plant; 0=no damage to plant), read-out: Percentage damage caused to weed species, post-emergence, IPOHE
[33] = Rate 1,000 g/ha, post-emergence spray, evaluated after 13 days (100=total damage to plant; 0=no damage to plant), read-out: Percentage damage caused to weed species, post-emergence, ALOMY
[34] = Rate 1,000 g/ha, post-emergence spray, evaluated after 13 days (100=total damage to plant; 0=no damage to plant), read-out: Percentage damage caused to weed species, post-emergence, AMARE
[35] = Rate 1,000 g/ha, post-emergence spray, evaluated after 13 days (100=total damage to plant; 0=no damage to plant), read-out: Percentage damage caused to weed species, post-emergence, ECHCG
[36] = Rate 1,000 g/ha, post-emergence spray, evaluated after 13 days (100=total damage to plant; 0=no damage to plant), read-out: Percentage damage caused to weed species, post-emergence, SETFA

Compound	pest or weed control at 1000 g/ha (Solanum nigrum (SOLNI) [1]; [25]) [%]	pest or weed control at 1000 g/ha [2, 26] [%]	pest or weed control at 1000 g/ha [3, 27] [%]	pest or weed control at 1000 g/ha [4, 28] [%]	pest or weed control at 1000 g/ha [5, 29] [%]	pest or weed control at 1000 g/ha (Setaria faberi (SETFA) [6]; [30]) [%]	pest or weed control at 1000 g/ha (Solanum nigrum (SOLNI) [7]; [31]) [%]	pest or weed control at 1000 g/ha [8, 32] [%]	pest or weed control at 1000 g/ha [9, 33] [%]	pest or weed control at 1000 g/ha [10, 34] [%]	pest or weed control at 1000 g/ha [11, 35] [%]	pest or weed control at 1000 g/ha (Setaria faberi (SETFA) [12]; [36]) [%]	other results
COC(=O)c1nc(C2CC2)nc(NCc2cc(F)ccc2F)c1Cl [Compound 4-98, 5-Chloro-2-cyclopropyl-4-(2,5-difluorophenyl-methyl-amino)-6-methoxycarbonyl-pyrimidine]	–	–	–	–	–	–	–	–	–	–	–	–	pest or weed control at 1000 g/ha (Solanum nigrum (SOLNI) [1]; [13]): 60%; pest or weed control at 1000 g/ha [2, 14]: 60%; pest or weed control at 1000 g/ha [3, 15]: 30%; pest or weed control at 1000 g/ha [4, 16]: 50%; pest or weed control at 1000 g/ha [5, 17]: 20%; pest or weed control at 1000 g/ha (Setaria faberi (SETFA) [6]; [18]): 30%; pest or weed control at 1000 g/ha (Solanum nigrum (SOLNI) [7]; [19]): 100%; pest or weed control at 1000 g/ha [8, 20]: 100%; pest or weed control at 1000 g/ha [9, 21]: 40%; pest or weed control at 1000 g/ha [10, 22]: 100%; pest or weed control at 1000 g/ha [11, 23]: 80%; pest or weed control at 1000 g/ha (Setaria faberi (SETFA) [12]; [24]): 100%
COC(=O)c1nc(C2CC2)nc(NCc2ccccc2Br)c1Cl [Compound 4-67, 4-(2-Bromophenyl-methylamino)-5-chloro-2-cyclopropyl-6-methoxycarbonyl-pyrimidine]	–	–	–	–	–	–	–	–	–	–	–	–	pest or weed control at 250 g/ha (Solanum nigrum (SOLNI) [1]; pre-emergence, 250 g/ha, evaluated after 13 days (100=total damage; 0=no damage), read-out: Percentage damage SOLNI): 20%; pest or weed control at 250 g/ha ([2]; pre-emergence, 250 g/ha, evaluated after 13 days (100=total damage; 0=no damage), read-out: Percentage damage IPOHE): 0%; pest or weed control at 250 g/ha ([3]; pre-emergence, 250 g/ha, evaluated after 13 days (100=total damage; 0=no damage), read-out: Percentage damage ALOMY): 0%; pest or weed control at 250 g/ha ([4]; pre-emergence, 250 g/ha, evaluated after 13 days (100=total damage; 0=no damage), read-out: Percentage damage AMARE): 40%; pest or weed control at 250 g/ha ([5]; pre-emergence, 250 g/ha, evaluated after 13 days (100=total damage; 0=no damage), read-out: Percentage damage ECHCG): 0%; pest or weed control at 250 g/ha (Setaria faberi (SETFA) [6]; pre-emergence, 250 g/ha, evaluated after 13 days (100=total damage; 0=no damage), read-out: Percentage damage SETFA): 0%; pest or weed control at 250 g/ha (Solanum nigrum (SOLNI) [7]; post-emergence, 250 g/ha, evaluated after 13 days (100=total damage; 0=no damage), read-out: Percentage damage caused to weed species, SOLNI): 90%; pest or weed control at 250 g/ha ([8]; post-emergence, 250 g/ha, evaluated after 13 days (100=total damage; 0=no damage), read-out: Percentage damage caused to weed species, IPOHE): 80%; pest or weed control at 250 g/ha ([9]; post-emergence, 250 g/ha, evaluated after 13 days (100=total damage; 0=no damage), read-out: Percentage damage caused to weed species, ALOMY): 20%; pest or weed control at 250 g/ha ([10]; post-emergence, 250 g/ha, evaluated after 13 days (100=total damage; 0=no damage), read-out: Percentage damage caused to weed species, AMARE): 90%; pest or weed control at 250 g/ha ([11]; post-emergence, 250 g/ha, evaluated after 13 days (100=total damage; 0=no damage), read-out: Percentage damage caused to weed species, ECHCG): 50%; pest or weed control at 250 g/ha (Setaria faberi (SETFA) [12]; post-emergence, 250 g/ha, evaluated after 13 days (100=total damage; 0=no damage), read-out: Percentage damage caused to weed species, SETFA): 70%
CC(C)OC(=O)c1nc(C2CC2)nc(NCc2ccco2)c1Cl [Compound 197-125, 5-Chloro-2-cyclo-propyl-4-(2-furanylmethyl-amino)-6-iso-propoxycarbonyl-pyrimidine]	90	100	50	100	70	70	100	100	50	100	70	100	–
CCN(Cc1ccc(OC)c(OC)c1)c1nc(C2CC2)nc(C(=O)OC)c1Cl [Compound 6-112, 5-Chloro-2-cyclopropyl-4-[N-(3,4-dimethoxy-phenylmethyl)-N-ethyl-amino]-6-methoxycarbonyl-pyrimidine]	10	60	10	60	10	0	80	80	30	100	70	80	–
COC(=O)c1nc(C2CC2)nc(NCC2CCN(OC(=O)C(C)(C)C)CC2)c1Cl [Compound 4-58]	–	–	–	–	–	–	–	–	–	–	–	–	pest or weed control at 1000 g/ha (Solanum nigrum (SOLNI) [1]; [13]): 30%; pest or weed control at 1000 g/ha [2, 14]: 20%; pest or weed control at 1000 g/ha [3, 15]: 0%; pest or weed control at 1000 g/ha [4, 16]: 80%; pest or weed control at 1000 g/ha [5, 17]: 0%; pest or weed control at 1000 g/ha (Setaria faberi (SETFA) [6]; [18]): 0%; pest or weed control at 1000 g/ha (Solanum nigrum (SOLNI) [7]; [19]): 70%; pest or weed control at 1000 g/ha [8, 20]: 50%; pest or weed control at 1000 g/ha [9, 21]: 0%; pest or weed control at 1000 g/ha [10, 22]: 70%; pest or weed control at 1000 g/ha [11, 23]: 40%; pest or weed control at 1000 g/ha (Setaria faberi (SETFA) [12]; [24]): 50%
C=CCN(Cc1cccc(OC)c1OC)c1nc(C2CC2)nc(C(=O)OC)c1Cl [Compound 151-109, 5-Chloro-2-cyclopropyl-4-[N-(2,3-dimethoxyphenyl-methyl)-N-prop-2-en-1-yl-amino]-6-methoxycarbonyl-pyrimidine]	20	20	0	60	0	10	30	30	0	30	0	0	–
COC(=O)c1nc(C2CC2)nc(N(C)Cc2ccc(F)cc2)c1Cl [Compound 5-66, 5-Chloro-2-cyclopropyl-4-[N-(4-fluorophenylmethyl)-N-methyl-amino]-6-methoxy-carbonylpyrimidine]	60	70	30	100	40	60	90	100	20	100	40	80	–
